Test results published in publication PMC10683761 (ACS Sensors, 2023).

Key:
Format in all cases: cell-based, human
[1] = test system: dMASS^1; conditions: 10 μM compound, sensor dMASS^1, mean ± SEM, N = 40 cells
[2] = test system: dLight1.1; conditions: 10 μM compound, sensor dLight1.1, mean ± SEM, N = 40 cells
[3] = test system: dMASS^1; test: dMASS^1 response to 1 μM DA in presence of dopamine receptor subtype antagonists

NCCc1c[nH]c2ccc(O)cc12 [5-HT, 5-hydroxytryptamine]
response normalized to 10 μM DA stimulation [1]: 3.32 ± 0.20%
response normalized to 10 μM DA stimulation [2]: 6.61 ± 0.69%

CC(=O)OCC[N+](C)(C)C [ACh, acetylcholine]
response normalized to 10 μM DA stimulation [1]: 3.61 ± 0.14%
response normalized to 10 μM DA stimulation [2]: 8.22 ± 0.58%

CC(C)NCC(O)c1ccc(O)c(O)c1 (centres unmarked) [Iso, isoproterenol]
response normalized to 10 μM DA stimulation [1]: 3.80 ± 0.21%
response normalized to 10 μM DA stimulation [2]: 8.89 ± 0.83%

NC[C@H](O)c1ccc(O)c(O)c1 [NE, norepinephrine]
response normalized to 10 μM DA stimulation [1]: 58.00 ± 3.46%
response normalized to 10 μM DA stimulation [2]: 55.06 ± 4.31%

CN1CCc2cc(Cl)c(O)cc2[C@@H](c2ccccc2)C1 [SCH23390]
response normalized to 10 μM DA stimulation [1]: 3.58 ± 0.16%
response normalized to 10 μM DA stimulation [2]: 8.87 ± 0.58%

CCN1CCCC1CNC(=O)c1cc(S(N)(=O)=O)ccc1OC (centres unmarked) [Sulpiride]
effect on DA-dependent response of dMASS^1 [3]: but not dMASS^1
